Measured values from ChEMBL document CHEMBL1152576, “E-Combretastatin and E-resveratrol structural modifications: antimicrobial and cancer cell growth inhibitory beta-E-nitrostyrenes” (Bioorg Med Chem, 2009).
≈ marks a conversion by molar mass, not a printed value. Calls of active or inactive are those of the source. No cut-off for these calls is given here.

Assays:
P388 = test: Cytotoxicity against mouse P388 cells after 48 hrs by sulforhodamine B assay; assay type: functional; settings: P388, 48 h, read-out: ED50 (the source's name)
BXPC-3 = test: Cytotoxicity against human BxPC3 cells after 48 hrs by sulforhodamine B assay; assay type: functional
MCF7 = test: Cytotoxicity against human MCF7 cells after 48 hrs by sulforhodamine B assay; assay type: functional
SF-295 = test: Cytotoxicity against human SF295 cells after 48 hrs by sulforhodamine B assay; assay type: functional
SF-268 = test: Cytotoxicity against human SF268 cells after 48 hrs by sulforhodamine B assay; assay type: functional
NCI-H460 = test: Cytotoxicity against human NCI-H460 cells after 48 hrs by sulforhodamine B assay; assay type: functional
KM-20L2 = test: Cytotoxicity against human KM20L2 cells after 48 hrs by sulforhodamine B assay; assay type: functional
DU-145 = test: Cytotoxicity against human DU145 cells after 48 hrs by sulforhodamine B assay; assay type: functional
SK-MEL-5 = test: Cytotoxicity against human SK-MEL-5 cells after 48 hrs by sulforhodamine B assay; assay type: functional
OVCAR-3 = test: Cytotoxicity against human OVCAR-3 cells after 48 hrs by sulforhodamine B assay; assay type: functional
A498 = test: Cytotoxicity against human A498 cells after 48 hrs by sulforhodamine B assay; assay type: functional
Candida albicans = test: Antimicrobial activity against Candida albicans ATCC 90028 assessed clear zone in inhibition per disk by CLSI disk diffusion susceptibility assay; assay type: functional
Cryptococcus neoformans = test: Antimicrobial activity against Cryptococcus neoformans ATCC 90112 assessed clear zone in inhibition per disk by CLSI disk diffusion susceptibility assay; assay type: functional
Staphylococcus aureus = test: Antimicrobial activity against Staphylococcus aureus ATCC 29213 assessed clear zone in inhibition per disk by CLSI disk diffusion susceptibility assay; assay type: functional
Streptococcus pneumoniae = test: Antimicrobial activity against Streptococcus pneumoniae ATCC 6303 assessed clear zone in inhibition per disk by CLSI disk diffusion susceptibility assay; assay type: functional
Enterococcus faecalis = test: Antimicrobial activity against Enterococcus faecalis ATCC 29212 assessed clear zone in inhibition per disk by CLSI disk diffusion susceptibility assay; assay type: functional
Micrococcus luteus = test: Antimicrobial activity against Micrococcus luteus Presque Isle 456 assessed clear zone in inhibition per disk by CLSI disk diffusion susceptibility assay; assay type: functional
[1] = system: Stenotrophomonas maltophilia; test: Antimicrobial activity against Stenotrophomonas maltophilia ATCC 13637 assessed clear zone in inhibition per disk by CLSI disk diffusion susceptibility assay; assay type: functional
Escherichia coli = test: Antimicrobial activity against Escherichia coli ATCC 25922 assessed clear zone in inhibition per disk by CLSI disk diffusion susceptibility assay; assay type: functional
Enterobacter cloacae = test: Antimicrobial activity against Enterobacter cloacae ATCC 13047 assessed clear zone in inhibition per disk by CLSI disk diffusion susceptibility assay; assay type: functional
Neisseria gonorrhoeae = test: Antimicrobial activity against Neisseria gonorrhoeae ATCC 49226 assessed clear zone of inhibition measured per disk by CLSI disk diffusion susceptibility assay; assay type: functional
[2] = Inhibition of tubulin polymerization

| SMILES | EC50 (P388) | GI50 (NCI-H460; NCI-H460, 48 h) | GI50 (KM-20L2; KM-20L2, 48 h) | MIC (Candida albicans) | MIC (Cryptococcus neoformans) | MIC (Staphylococcus aureus) | MIC (Streptococcus pneumoniae) | MIC (Enterococcus faecalis) | MIC (Micrococcus luteus) | MIC [1] | MIC (Escherichia coli) | MIC (Enterobacter cloacae) | MIC (Neisseria gonorrhoeae) | GI50 (BXPC-3; BXPC-3, 48 h) | GI50 (SF-295) | GI50 (DU-145; DU-145, 48 h) | GI50 (SK-MEL-5) | GI50 (OVCAR-3) | GI50 (A498) | IC50 [2] | other results |
| --- | --- | --- | --- | --- | --- | --- | --- | --- | --- | --- | --- | --- | --- | --- | --- | --- | --- | --- | --- | --- | --- |
| COc1cc(OC)c(/C=C/[N+](=O)[O-])c(OC)c1 | 14 µg/mL (≈ 58.5 µM) | 0.32 µg/mL (≈ 1.34 µM) | 0.38 µg/mL (≈ 1.59 µM) | >100 µg | >100 µg | >100 µg | >100 µg | >100 µg | >100 µg | >100 µg | >100 µg | >100 µg | >100 µg | – | – | – | – | – | – | – | GI50 (BXPC-3): inactive; GI50 (MCF7): inactive; GI50 (SF-295; SF-295, 48 h): 0.45 µg/mL (≈ 1.88 µM); GI50 (SF-268): inactive; GI50 (DU-145): inactive; GI50 (SK-MEL-5; SK-MEL-5, 48 h): 0.61 µg/mL (≈ 2.55 µM); GI50 (OVCAR-3; OVCAR-3, 48 h): 0.42 µg/mL (≈ 1.76 µM); GI50 (A498; A498, 48 h): 0.36 µg/mL (≈ 1.5 µM) |
| O=[N+]([O-])/C=C/c1ccc(OP(=O)([O-])[O-])cc1.[Na+].[Na+] | 47.8 µg/mL | > 10 µg/mL | > 10 µg/mL | >100 µg | >100 µg | >100 µg | >100 µg | >100 µg | >100 µg | >100 µg | >100 µg | >100 µg | >100 µg | > 10 µg/mL | inactive | 57.8 µg/mL | inactive | inactive | inactive | > 40 µM | GI50 (MCF7; MCF7, 48 h): > 10 µg/mL; GI50 (SF-268; SF-268, 48 h): > 10 µg/mL |
| CCOc1ccc(/C=C/[N+](=O)[O-])cc1 | 3.8 µg/mL (≈ 19.7 µM) | 1.9 µg/mL (≈ 9.83 µM) | 2.4 µg/mL (≈ 12.4 µM) | 3.12 µg | 1.56 µg | 25 µg | 12.5 µg | 50 µg | 50 µg | >100 µg | >100 µg | >100 µg | 0.78 µg | 1.2 µg/mL (≈ 6.21 µM) | inactive | 2.2 µg/mL (≈ 11.4 µM) | inactive | inactive | inactive | 5.5 µM | GI50 (MCF7; MCF7, 48 h): 1.1 µg/mL (≈ 5.69 µM); GI50 (SF-268; SF-268, 48 h): 1.8 µg/mL (≈ 9.32 µM) |
| COc1ccc(/C=C/[N+](=O)[O-])cc1OP(=O)(OCc1ccccc1)OCc1ccccc1 | 2.2 µg/mL (≈ 4.83 µM) | > 10 µg/mL | > 10 µg/mL | >100 µg | >100 µg | 3.12 µg | >100 µg | 6.25 µg | 3.12 µg | >100 µg | >100 µg | >100 µg | 0.78 µg | > 10 µg/mL | – | > 10 µg/mL | inactive | – | inactive | 10 µM | GI50 (MCF7): inactive; GI50 (SF-295; SF-295, 48 h): > 10 µg/mL; GI50 (SF-268): inactive; GI50 (OVCAR-3; OVCAR-3, 48 h): > 10 µg/mL |
| Oc1ccc(/C=C/c2cc(O)cc(O)c2)cc1 [RESVERATROL] | – | – | – | – | – | – | – | – | – | – | – | – | – | – | inactive | – | inactive | inactive | inactive | > 40 µM | – |
| Oc1ccc(/C=C\c2cc(O)cc(O)c2)cc1 [CIS-RESVERATROL] | – | – | 22 µg/mL (≈ 96.4 µM) | – | – | – | – | – | – | – | – | – | – | – | inactive | – | inactive | inactive | inactive | – | GI50 (SF-268; SF-268, 48 h): 5 µg/mL (≈ 21.9 µM) |
| COc1ccc(/C=C\c2cc(OC)c(OC)c(OC)c2)cc1O [COMBRETASTATIN A4] | 0.03 µg/mL (≈ 0.0948 µM) | 0.0006 µg/mL (≈ 0.0019 µM) | 0.34 µg/mL (≈ 1.07 µM) | – | – | – | – | – | – | – | – | – | – | 0.39 µg/mL (≈ 1.23 µM) | inactive | 0.0008 µg/mL (≈ 0.00253 µM) | inactive | inactive | inactive | 2.1 µM | GI50 (MCF7): inactive |
| CC(=O)Nc1ccc(/C=C/[N+](=O)[O-])cc1 | 6.2 µg/mL (≈ 30.1 µM) | 0.7 µg/mL (≈ 3.39 µM) | 1.1 µg/mL (≈ 5.33 µM) | 6.25 µg | <6.25 µg | <6.25 µg | <6.25 µg | >100 µg | >100 µg | >100 µg | >100 µg | >100 µg | <6.25 µg | – | – | – | – | – | – | 11 µM | GI50 (BXPC-3): inactive; GI50 (MCF7): inactive; GI50 (SF-295; SF-295, 48 h): 1.4 µg/mL (≈ 6.79 µM); GI50 (SF-268): inactive; GI50 (DU-145): inactive; GI50 (SK-MEL-5; SK-MEL-5, 48 h): 0.34 µg/mL (≈ 1.65 µM); GI50 (OVCAR-3; OVCAR-3, 48 h): 0.65 µg/mL (≈ 3.15 µM); GI50 (A498; A498, 48 h): 0.96 µg/mL (≈ 4.66 µM) |
| O=[N+]([O-])/C=C/c1ccc(OP(=O)(OCc2ccccc2)OCc2ccccc2)cc1 | 7 µg/mL (≈ 16.5 µM) | > 10 µg/mL | > 10 µg/mL | >100 µg | 25 µg | 3.12 µg | >100 µg | 6.25 µg | 6.25 µg | >100 µg | >100 µg | >100 µg | 0.78 µg | > 10 µg/mL | inactive | > 10 µg/mL | inactive | inactive | inactive | 10 µM | GI50 (MCF7; MCF7, 48 h): > 10 µg/mL; GI50 (SF-268; SF-268, 48 h): > 10 µg/mL |
| COc1cc(/C=C/[N+](=O)[O-])c(OC)c(OC)c1OC | 1.3 µg/mL (≈ 4.83 µM) | – | – | 0.78 µg | 0.78 µg | <0.78 µg | 6.25 µg | 3.12 µg | 1.56 µg | 25 µg | 12.5 µg | >100 µg | <0.78 µg | – | inactive | – | inactive | inactive | inactive | 5.4 µM | GI50 (BXPC-3): inactive; GI50 (MCF7): inactive; GI50 (SF-268): inactive; GI50 (NCI-H460): inactive; GI50 (KM-20L2): inactive; GI50 (DU-145): inactive |
| COc1cc(/C=C/[N+](=O)[O-])cc(O[Si](C)(C)C(C)(C)C)c1OC | 32.6 µg/mL (≈ 96 µM) | > 10 µg/mL | > 10 µg/mL | >100 µg | 25 µg | 3.12 µg | 3.12 µg | 3.12 µg | 1.56 µg | >100 µg | >100 µg | >100 µg | 3.12 µg | > 10 µg/mL | – | > 10 µg/mL | inactive | – | inactive | 12 µM | GI50 (MCF7): inactive; GI50 (SF-295; SF-295, 48 h): > 10 µg/mL; GI50 (SF-268): inactive; GI50 (OVCAR-3; OVCAR-3, 48 h): > 10 µg/mL |
| COc1ccc(/C=C/[N+](=O)[O-])cc1OP(=O)([O-])[O-].[Na+].[Na+] | 5.7 µg/mL | 5.8 µg/mL | > 10 µg/mL | >100 µg | >100 µg | >100 µg | >100 µg | >100 µg | >100 µg | >100 µg | >100 µg | >100 µg | 50 µg | > 10 µg/mL | inactive | 4 µg/mL | inactive | inactive | inactive | 18 µM | GI50 (MCF7; MCF7, 48 h): 4.3 µg/mL; GI50 (SF-268; SF-268, 48 h): 4.2 µg/mL |
| COc1ccc(/C=C/c2cc(OC)c(OC)c(OC)c2)cc1O [E-COMBRETASTATIN A-4] | 0.28 µg/mL (≈ 0.885 µM) | 0.038 µg/mL (≈ 0.12 µM) | – | – | – | – | – | – | – | – | – | – | – | 3.9 µg/mL (≈ 12.3 µM) | inactive | 0.037 µg/mL (≈ 0.117 µM) | inactive | inactive | inactive | 33 µM | GI50 (MCF7): inactive; GI50 (SF-268): inactive; GI50 (KM-20L2): inactive |
